According to US6369268B1, “Diester amine adducts” (Ciba Specialty Chemicals Corporation, priority 1997, dated 2002):

Key:
Assay in all cases: Agar diffusion test (microbiological test)
Format in all cases: cell-based
Conditions in all cases: 100 μl of a 1% solution in abs. ethanol; 48 h incubation at 37° C.
[1] = tested on: Escherichia coli NCTC 8196
Description: (§1) Casein soybean flour peptone agar (Merck)
(§2) Casein soybean flour peptone broth (Merck)
Escherichia coli NCTC 8196
(§3) Preparation of the Germ Suspensions
(§4) The test germs are cultivated overnight (about 18 h) at 37° C. in Caso-Broth (5 ml test tubes). The germ count of the overnight cultivation is determined by the spiralometer method and must be between 10^8-10^9 KBE/ml.
(§5) The culture is diluted to about 10^7 KBE/ml with 0.85% NaCl solution, pH 7.2.
(§6) Petri dishes are filled with about 18 ml of sterile nutrient agar which is allowed to solidify.
(§7) 3.5 ml of the germ dilution in 0.85% NaCl are pipetted into 500 ml of still liquid agar which is cooled in a water bath to 47° C. and homogenised.
(§8) 6 ml of the germ-infested agar are evenly distributed on the solidified ground layer. After a drying and storage time of about 24 hours at 4° C. the dishes are ready for the test.
(§9) Drop Amount 100 μl of a 1% solution of the tetraester of formula (104) in abs. ethanol are pipetted into the centre of the dish and are dried for about 30 minutes at room temperature (the substances run into zones of about 20-30 mm).
(§10) Results of the Agar Diffusion Test
(§11) After a 48 h incubation of the agar dishes at 37° C., the growth of the […] in the drop zone is assessed.

[2] = tested on: Staphylococcus aureus ATCC 9144
Description: as §1, §2
Staphylococcus aureus ATCC 9144
as §3, §4, §5, §6, §7, §8, §9, §10, §11

[3] = tested on: Corynebacterium xerosis ATCC 373
Description: as §1, §2
Corynebacterium xerosis ATCC 373
as §3, §4, §5, §6, §7, §8, §9, §10, §11

Structure (SMILES) | growth in the drop zone, Escherichia coli NCTC 8196 [1] | growth in the drop zone, Staphylococcus aureus ATCC 9144 [2] | growth in the drop zone, Corynebacterium xerosis ATCC 373 [3]
CCCCC(CC)COC(=O)CC(NCCNC(CC(=O)OCC(CC)CCCC)C(=O)OCC(CC)CCCC)C(=O)OCC(CC)CCCC (mixture of isomers) [ethylenediaminedisuccinic acid tetra(isooctyl)ester (isomer mixture), [S,S]-/[R,R]-/[R,S]-Ethylenediaminedisuccinic acid tetraisooctyl ester (isomer mixture)] | no inhibition | no inhibition | inhibition
CCCCC(CC)COC(=O)C[C@H](NCCN[C@@H](CC(=O)OCC(CC)CCCC)C(=O)OCC(CC)CCCC)C(=O)OCC(CC)CCCC (stereo partly drawn) [[S,S]-Ethylenediaminedisuccinic acid tetraisooctyl ester] | no inhibition | no inhibition | inhibition
